Reference: publication PMC8848508 (ACS Central Science, 2022)
“Also recorded” adds a separate entry of the source. Where a SMILES comes first, the peptide text is derived from it. The star is where a group is joined. Cbz = O=C(OCc1ccccc1)*

The compounds below were run against SARS-CoV-2 M^Pro (Severe acute respiratory syndrome coronavirus 2, UniProt P0DTD1, Q3569G).
Type: cell-based
`CC(C)C[C@@H](C=O)NC(=O)[C@H](CC(C)C)NC(=O)[C@H](CC(C)C)NC(=O)OCc1ccccc1` [MG-132] (Cbz-Leu-Leu-Leu-aldehyde) was tested, and the “cellular inhibition of M^Pro (in words)” value was “close to undetectable”. `CC(C)COCC(CN(Cc1ccccc1)c1ccccc1)N1CCCC1` (stereo not drawn) [bepridil] was tested, and the “cellular inhibition of M^Pro (in words)” value was “relatively weak to undetectable; also recorded: very weak inhibition; also recorded: close to undetectable”. `CC(C)(C)NC(=O)N[C@H](C(=O)N1C[C@H]2[C@@H]([C@H]1C(=O)NC(CC1CCC1)C(=O)C(N)=O)C2(C)C)C(C)(C)C` (stereo partly drawn) [boceprevir] was tested, and the “cellular inhibition of M^Pro (in words)” value was “close to undetectable; also recorded: very weak”. With `CCCC[C@@H](C=O)NC(=O)[C@H](CC(C)C)NC(=O)OCc1ccccc1` [calpeptin] the “cellular inhibition of M^Pro (in words)” value was “close to undetectable”. With `CCCCCCNC(=O)n1cc(F)c(=O)[nH]c1=O` [carmofur] the “cellular inhibition of M^Pro (in words)” value was “undetectable”. With `CCN(CC)CCCC(C)Nc1ccnc2cc(Cl)ccc12` (stereo not drawn) [chloroquine] the “cellular inhibition of M^Pro (in words)” value was “relatively weak to undetectable; also recorded: close to undetectable”. With `O=c1c2ccccc2[se]n1-c1ccccc1` [ebselen] the “cellular inhibition of M^Pro (in words)” value was “relatively weak to undetectable”. In the case of `CCN(CCO)CCCC(C)Nc1ccnc2cc(Cl)ccc12` (stereo not drawn) [hydroxychloroquine], the “cellular inhibition of M^Pro (in words)” value is reported as “relatively weak to undetectable; also recorded: close to undetectable”. With `CCC[C@H](NC(=O)[C@@H]1[C@H]2CCC[C@H]2CN1C(=O)[C@@H](NC(=O)[C@@H](NC(=O)c1cnccn1)C1CCCCC1)C(C)(C)C)C(=O)C(=O)NC1CC1` [telaprevir] the “cellular inhibition of M^Pro (in words)” value was “close to undetectable”.
